From patent US9375411B2, “Uses and methods for the treatment of liver diseases or conditions” (Verlyx Pharma Inc., priority 2012, dated 2016)

Experiments:
in vivo = conditions: female, Fox Chase SCID CB17, mouse, oral
NASH-like pathology = assay: Diabetic and high-fat diet model (STAM mice, NASH-like pathology); type: in vivo, C57BL/6 mice; conditions: high dose group (25 mg/kg IP three times a week, 6-9 wks)
Method: In this experiment, NASH-like pathology is induced in C57BL/6 mice by a single subcutaneous injection of 200 ug streptozotocin 2 days after birth and feeding with high fat diet (HFD, 57 kcal % fat, cat#: HFD32, CLEA Japan, Japan) after 4 weeks of age (STAM mice). Vehicle or pentamidine treatment was administered three times a week from 6 to 9 weeks of age. Vehicle (0.9% NaCl) and PENTAMIDINE were administered by intraperitoneal route in a volume of 10 mL/kg.

[1] = Repeated oral administration, tissue concentrations in mice; type: in vivo, Female Fox Chase SCID CB17 Mice
Method: In this experiment, mice from all groups were first injected with pentamidine via the IV route on Day 1 (5 mg/kg). Tissue concentrations were assessed 24 hours later (on Day 2), and weekly thereafter (Day 7 and 14) with no subsequent pentamidine administration. Starting on Day 2, groups 2 and 3 were given pentamidine once a day (QD) or twice a day (BID) respectively and tissue levels were measured 24 hours later (Day 3) and weekly thereafter for two weeks.

[2] = Repeat dose oral tablet or intravenous infusion, biodistribution and tissue elimination; conditions: Beagle dogs
[3] = tested on: GalN/LPS-induced liver injury; assay: GalN/LPS fulminant liver injury survival study; type: in vivo; conditions: C57BL/6 mice; IP 30 minutes prior GalN/LPS; PENTAMIDINE 40 mpk, Decamidine 10 mpk
Method: In this experiment, the 8-hour survival rate for C57BL/6 mice is evaluated when treated or not with two different aromatic diamidines (pentamidine isethionate(C5) and decamidine isethionate (C10)). Both compounds were administered intraperitoneally at doses close to their MTD 30 minutes prior a GalN/LPS-induced liver injury.

[4] = IV 5 mg/kg Day 1, then PO QD or BID

N=C(N)c1ccc(OCCCCCOc2ccc(C(=N)N)cc2)cc1 [pentamidine, pentamidine bis(2-hydroxyethanesulfonate)]
bioavailability (in vivo): ~1% | Liver weights (NASH-like pathology): close to normal mice control values | fibrosis formation (Sirius Red staining) (NASH-like pathology): trend for reduction | Kidney levels, effect of oral administration [1, 4]: not affected by oral administration | liver concentrations under oral administration regimen [1, 4]: can be maintained to a desired concentration | Kidneys, lung and muscle concentrations, difference between groups with or without PO ([1]; IV 5 mg/kg Day 1, then none, PO QD or PO BID): no significant difference between groups | Biodistribution in organs following PO administration ([2]; instant-release tablet): favored the liver | exposure to the pancreas and kidney, PO versus IV administration ([2]; instant-release tablet PO vs IV, normalized liver concentrations): significantly lower exposure | 8-hour survival [3]: 83%
